Converted amounts (≈) assume the structure as drawn.
Key:
[1] = tested on: KB; experiment: Cytotoxicity against human KB cells; type: cell-based; settings: Homo sapiens, KB
[2] = tested on: Staphylococcus aureus; experiment: Antibacterial activity against Staphylococcus aureus; type: functional
[3] = tested on: Bacillus cereus; experiment: Antibacterial activity against Bacillus cereus; type: functional

Row | Compound | MIC [2] [µg/mL] | MIC [3] [µg/mL] | IC50 [1] [µg/mL]
1 | CC(C)C[C@H](NC(=O)CNC(=O)C(C)(C)NC(=O)[C@@H](NC(=O)C(C)(C)NC(=O)[C@H](CCC(N)=O)NC(=O)[C@H](C)NC(=O)C(C)(C)NC(=O)[C@H](C)NC(=O)C(C)(C)NC(=O)[C@@H]1CCN(C(=O)C(C)(C)n2cc(-c3cc4ccccc4c4ccccc34)nn2)C1)C(C)C)C(=O)NC(C)(C)C(=O)N1CCC[C@@H]1C(=O)N[C@H](C(=O)NC(C)(C)C(=O)NC(C)(C)C(=O)N[C@@H](CCC(N)=O)C(=O)N[C@@H](CCC(N)=O)C(=O)N[C@H](CO)Cc1ccccc1)C(C)C | 1.56 (≈ 0.726 µM) | 1.56 (≈ 0.726 µM) | 2.9 (≈ 1.35 µM)
2 | CC(=O)C(C)(C)C(=O)N1CC[C@@H](C(=O)NC(C)(C)C(=O)N[C@@H](C)C(=O)NC(C)(C)C(=O)N[C@@H](C)C(=O)N[C@@H](CCC(N)=O)C(=O)NC(C)(C)C(=O)N[C@H](C(=O)NC(C)(C)C(=O)NCC(=O)N[C@@H](CC(C)C)C(=O)NC(C)(C)C(=O)N2CCC[C@@H]2C(=O)N[C@H](C(=O)NC(C)(C)C(=O)NC(C)(C)C(=O)N[C@@H](CCC(N)=O)C(=O)N[C@@H](CCC(N)=O)C(=O)N[C@H](CO)Cc2ccccc2)C(C)C)C(C)C)C1 | 1.56 (≈ 0.801 µM) | 1.56 (≈ 0.801 µM) | 1.56 (≈ 0.801 µM)
3 | CC(C)C[C@H](NC(=O)CNC(=O)C(C)(C)NC(=O)[C@@H](NC(=O)C(C)(C)NC(=O)[C@H](CCC(N)=O)NC(=O)[C@H](C)NC(=O)C(C)(C)NC(=O)[C@H](C)NC(=O)C(C)(C)NC(=O)[C@@H]1CCN(C(=O)C(C)(C)n2cc(-c3cc(C(F)(F)F)cc(C(F)(F)F)c3)nn2)C1)C(C)C)C(=O)NC(C)(C)C(=O)N1CCC[C@@H]1C(=O)N[C@H](C(=O)NC(C)(C)C(=O)NC(C)(C)C(=O)N[C@@H](CCC(N)=O)C(=O)N[C@@H](CCC(N)=O)C(=O)N[C@H](CO)Cc1ccccc1)C(C)C | 1.56 (≈ 0.714 µM) | 1.56 (≈ 0.714 µM) | 2.9 (≈ 1.33 µM)
4 | CC(C)C[C@H](NC(=O)CNC(=O)C(C)(C)NC(=O)[C@@H](NC(=O)C(C)(C)NC(=O)[C@H](CCC(N)=O)NC(=O)[C@H](C)NC(=O)C(C)(C)NC(=O)[C@H](C)NC(=O)C(C)(C)NC(=O)[C@@H]1CCN(C(=O)C(C)(C)n2cc(-c3ccccc3)nn2)C1)C(C)C)C(=O)NC(C)(C)C(=O)N1CCC[C@@H]1C(=O)N[C@H](C(=O)NC(C)(C)C(=O)NC(C)(C)C(=O)N[C@@H](CCC(N)=O)C(=O)N[C@@H](CCC(N)=O)C(=O)N[C@H](CO)Cc1ccccc1)C(C)C | 1.56 (≈ 0.761 µM) | 1.56 (≈ 0.761 µM) | 2.9 (≈ 1.42 µM)

More lines, in order of falling MIC [2], values ahead:

Row | MIC [2] [µg/mL] | MIC [3] [µg/mL] | Compound | IC50 [1] [µg/mL]
5 | 12.5 (≈ 5.9 µM) | 12.5 (≈ 5.9 µM) | CC(C)C[C@H](NC(=O)CNC(=O)C(C)(C)NC(=O)[C@@H](NC(=O)C(C)(C)NC(=O)[C@H](CCC(N)=O)NC(=O)[C@H](C)NC(=O)C(C)(C)NC(=O)[C@H](C)NC(=O)C(C)(C)NC(=O)[C@@H]1CCN(C(=O)C(C)(C)n2cc(-c3ccc(C(F)(F)F)cc3)nn2)C1)C(C)C)C(=O)NC(C)(C)C(=O)N1CCC[C@@H]1C(=O)N[C@H](C(=O)NC(C)(C)C(=O)NC(C)(C)C(=O)N[C@@H](CCC(N)=O)C(=O)N[C@@H](CCC(N)=O)C(=O)N[C@H](CO)Cc1ccccc1)C(C)C | 2.9 (≈ 1.37 µM)
6 | 1.56 (≈ 0.737 µM) | 1.56 (≈ 0.737 µM) | CC(C)C[C@H](NC(=O)CNC(=O)C(C)(C)NC(=O)[C@@H](NC(=O)C(C)(C)NC(=O)[C@H](CCC(N)=O)NC(=O)[C@H](C)NC(=O)C(C)(C)NC(=O)[C@H](C)NC(=O)C(C)(C)NC(=O)[C@@H]1CCN(C(=O)C(C)(C)n2cc(-c3cccc(C(F)(F)F)c3)nn2)C1)C(C)C)C(=O)NC(C)(C)C(=O)N1CCC[C@@H]1C(=O)N[C@H](C(=O)NC(C)(C)C(=O)NC(C)(C)C(=O)N[C@@H](CCC(N)=O)C(=O)N[C@@H](CCC(N)=O)C(=O)N[C@H](CO)Cc1ccccc1)C(C)C | 2.9 (≈ 1.37 µM)
7 | 1.56 (≈ 0.737 µM) | 1.56 (≈ 0.737 µM) | CC(C)C[C@H](NC(=O)CNC(=O)C(C)(C)NC(=O)[C@@H](NC(=O)C(C)(C)NC(=O)[C@H](CCC(N)=O)NC(=O)[C@H](C)NC(=O)C(C)(C)NC(=O)[C@H](C)NC(=O)C(C)(C)NC(=O)[C@@H]1CCN(C(=O)C(C)(C)n2cc(-c3ccccc3C(F)(F)F)nn2)C1)C(C)C)C(=O)NC(C)(C)C(=O)N1CCC[C@@H]1C(=O)N[C@H](C(=O)NC(C)(C)C(=O)NC(C)(C)C(=O)N[C@@H](CCC(N)=O)C(=O)N[C@@H](CCC(N)=O)C(=O)N[C@H](CO)Cc1ccccc1)C(C)C | 2.9 (≈ 1.37 µM)

Source: ChEMBL document CHEMBL4699440, “Comprehensive review on the anti-bacterial activity of 1,2,3-triazole hybrids” (Eur J Med Chem, 2019)
